# Data: publication PMC8155022 (Scientific Reports, 2021)
# Entries after “also recorded” stand apart in the source; their conditions may differ.
# Columns and labels:
# LXRβ = target: T1, LXRβ (Homo sapiens, UniProt P55055); assay: nuclear receptor cellular GAL4 reporter assay; assay type: cell-based; conditions: agonist and antagonist mode; read-out: potency in agonist and antagonist mode
# T1 construct: expressed in transfected cells
# FXR = target: T2, FXR (Homo sapiens, UniProt Q96RI1); assay: nuclear receptor cellular GAL4 reporter assay; assay type: cell-based; conditions: agonist and antagonist mode; read-out: potency in agonist and antagonist mode
# T2 construct: expressed in transfected cells
# beta 1 (h) = target: T3, beta 1 (h) (Homo sapiens, UniProt P08588); assay: Cerep panel; assay type: binding
# T3 construct: purchased Cerep (receptors, ion channels, transporters); Eurofins Panlabs (kinases)
# Protocol: (§1) A panel of 52 different receptors, ion channels and transporters was tested by Cerep, Inc. (Redmond, WA).
# B2 (h) = target: T4, B2 (h) (Homo sapiens, UniProt P30411); assay: Cerep panel; assay type: binding
# T4 construct: purchased Cerep (receptors, ion channels, transporters); Eurofins Panlabs (kinases)
# Protocol: as §1
# CXCR2 (h) (IL-8B) = target: T5, CXCR2 (h) (IL-8B) (Homo sapiens, UniProt P25025); assay: Cerep panel; assay type: binding
# T5 construct: purchased Cerep (receptors, ion channels, transporters); Eurofins Panlabs (kinases)
# Protocol: as §1
# M2 (h) = target: T6, M2 (h) (Homo sapiens, UniProt P08172); assay: Cerep panel; assay type: binding
# T6 construct: purchased Cerep (receptors, ion channels, transporters); Eurofins Panlabs (kinases)
# Protocol: as §1
# 5-HT1A (h) = target: T7, 5-HT1A (h) (Homo sapiens, UniProt P08908); assay: Cerep panel; assay type: binding
# T7 construct: purchased Cerep (receptors, ion channels, transporters); Eurofins Panlabs (kinases)
# Protocol: as §1
# DA-T transporter (h) = target: T8, DA-T transporter (h) (Homo sapiens, UniProt Q01959); assay: Cerep panel; assay type: binding
# T8 construct: purchased Cerep (receptors, ion channels, transporters); Eurofins Panlabs (kinases)
# Protocol: (§2) 28 GPCRs were evaluated through cAMP or calcium FLIPR assays[67]. A panel of 52 different receptors, ion channels and transporters was tested by Cerep, Inc. (Redmond, WA).
# 5HT1B = 5HT1B (Homo sapiens, UniProt P28222); assay: GPCR panel, cAMP or calcium FLIPR assays; assay type: cell-based
# Protocol: as §2
# 5HT2B = 5HT2B (Homo sapiens, UniProt P41595); assay: GPCR panel, cAMP or calcium FLIPR assays; assay type: cell-based
# Protocol: (§3) 28 GPCRs were evaluated through cAMP or calcium FLIPR assays[67].
# 5HT6 = 5HT6 (Homo sapiens, UniProt P50406); assay: GPCR panel, cAMP or calcium FLIPR assays; assay type: cell-based
# Protocol: as §3
# ADRA2B - AG = ADRA2B - AG (Homo sapiens, UniProt P18089); assay: GPCR panel, cAMP or calcium FLIPR assays; assay type: cell-based
# Protocol: as §3
# ADRA2C = ADRA2C (Homo sapiens, UniProt P18825); assay: GPCR panel, cAMP or calcium FLIPR assays; assay type: cell-based
# Protocol: as §3
# ADRB1 = ADRB1 (Homo sapiens, UniProt P08588); assay: GPCR panel, cAMP or calcium FLIPR assays; assay type: cell-based
# Protocol: as §3
# ETA = ETA (Homo sapiens, UniProt P25101); assay: GPCR panel, cAMP or calcium FLIPR assays; assay type: cell-based
# Protocol: as §3
# KOP = KOP (Homo sapiens, UniProt P41145); assay: GPCR panel, cAMP or calcium FLIPR assays; assay type: cell-based
# Protocol: as §3
# CDK5/p35(h) = target: T9, CDK5/p35(h) (Homo sapiens, UniProt Q00535); assay: Kinase panel; assay type: biochemical
# T9 construct: purchased Cerep (receptors, ion channels, transporters); Eurofins Panlabs (kinases)
# Protocol: (§4) Kinase selectivity was conducted by Eurofins Panlabs Inc (St Charles, MO).
# GSK3β(h) = target: T10, GSK3β(h) (Homo sapiens, UniProt P49841); assay: Kinase panel; assay type: biochemical
# T10 construct: purchased Cerep (receptors, ion channels, transporters); Eurofins Panlabs (kinases)
# Protocol: as §4
# IKKβ(h) = target: T11, IKKβ(h) (Homo sapiens, UniProt O14920); assay: Kinase panel; assay type: biochemical
# T11 construct: purchased Cerep (receptors, ion channels, transporters); Eurofins Panlabs (kinases)
# Protocol: as §4
# MAPK2(h) = target: T12, MAPK2(h) (Homo sapiens, UniProt P28482); assay: Kinase panel; assay type: biochemical
# T12 construct: purchased Cerep (receptors, ion channels, transporters); Eurofins Panlabs (kinases)
# Protocol: as §4
# PDGFRβ(h) = target: T13, PDGFRβ(h) (Homo sapiens, UniProt P09619); assay: Kinase panel; assay type: biochemical
# T13 construct: purchased Cerep (receptors, ion channels, transporters); Eurofins Panlabs (kinases)
# Protocol: as §4
# TrkC(h) = target: T14, TrkC(h) (Homo sapiens, UniProt Q16288); assay: Kinase panel; assay type: biochemical
# T14 construct: purchased Cerep (receptors, ion channels, transporters); Eurofins Panlabs (kinases)
# Protocol: as §4
# [1] = test system: CD4+ T cells under Treg polarizing conditions; assay: in vitro human Treg differentiation, FOXP3 gene expression; assay type: cell-based; conditions: 6 days
# Description: Supplement Materials and Methods
# In vitro human Treg differentiation
# Human nTreg Suppressive Assay
# [2] = test system: mouse collagen-induced arthritis (CIA) model; assay: mouse collagen-induced arthritis (CIA) model; assay type: in vivo; conditions: for reduction of clinical arthritis scores (AUC) vs vehicle, efficacy % inhibition: day 21-35
# Protocol: On Day 0, mice (female DBA/1Lacj, Jackson Laboratories; 8–10 weeks) were immunized at the base of the tail with an emulsion containing equal amounts of Chick Type II Collagen (Chondrex, Redmond, WA) and Complete-Freund’s adjuvant (CFA, Chondrex), 100 µg each per mouse, and administered a second immunization boost on day 21. On this day, animals were examined for clinical arthritis scores and randomized into treatment groups. […] Clinical arthritis scores were evaluated from day 21 to 34, and animals were euthanized under CO2 on day 35. Both hind paws from each animal were collected and fixed in 10% neutral buffered formalin for histopathology.
# [3] = test system: bacterial reverse mutation assay (AMES test); assay: bacterial reverse mutation assay (AMES test); assay type: cell-based; conditions: in vitro
# rat bone marrow = assay: in vivo rat micronucleus test on bone marrow
# rabbit fetal development = assay: rabbit embryo-fetal study; assay type: in vivo
# Protocol: Therefore, SAD was dosed only up to 200 mg.
# [4] = test system: human CD4+ T cells under Th1 conditions; assay: in vitro human Th1 differentiation, IFNγ production
# Protocol: On day 4, supernatants were analyzed for IL-17A, IL-17F, IL-22 and IFNγ production.
# Total CD4^+ T cells were isolated from peripheral blood mononuclear cells (PBMCs) of healthy donors using a CD4^+ T cell Isolation Kit II (Miltenyl Biotec, Auburn, CA), following the manufacturer’s instructions.
# In vitro human Th17 and Th1 differentiation
# Total CD4+ T cells were isolated from the peripheral blood mononuclear cells (PBMCs) of healthy donors
# using a CD4+ T cell Isolation Kit II (Miltenyl Biotec, Auburn, CA), following the manufacturer’s
# instructions. Isolated T cells were resuspended in culture medium and added to a 96-well plate at 1×105
# beads (prepared using human T cell activation/expansion kit, Miltenyi Biotec) at final concentration of
# 3x10^6/mL, and cocktail for either Th17 differentiation (10 µg/mL anti-IL-4, 10 µg/mL anti-IFN, 10 ng/mL
# IL-1β, 10 ng/mL IL-23, 50 ng/mL IL-6, 3 ng/mL TGFβ and 20 U/mL IL-2), or for Th1 differentiation (10
# µg/mL anti-IL-4, 10 ng/mL IL-12, and 20 U/mL IL-2). Cells were cultured at 37°C and 5% CO2 for 3 days.
# Supernatants were assayed for accumulated cytokines using MSD multi-spot assay (Meso Scale
# Discovery, Rockville, MD) or R&D ELISA kit.
# Chain of 5HT2B (P41595 whole entry, species assumed): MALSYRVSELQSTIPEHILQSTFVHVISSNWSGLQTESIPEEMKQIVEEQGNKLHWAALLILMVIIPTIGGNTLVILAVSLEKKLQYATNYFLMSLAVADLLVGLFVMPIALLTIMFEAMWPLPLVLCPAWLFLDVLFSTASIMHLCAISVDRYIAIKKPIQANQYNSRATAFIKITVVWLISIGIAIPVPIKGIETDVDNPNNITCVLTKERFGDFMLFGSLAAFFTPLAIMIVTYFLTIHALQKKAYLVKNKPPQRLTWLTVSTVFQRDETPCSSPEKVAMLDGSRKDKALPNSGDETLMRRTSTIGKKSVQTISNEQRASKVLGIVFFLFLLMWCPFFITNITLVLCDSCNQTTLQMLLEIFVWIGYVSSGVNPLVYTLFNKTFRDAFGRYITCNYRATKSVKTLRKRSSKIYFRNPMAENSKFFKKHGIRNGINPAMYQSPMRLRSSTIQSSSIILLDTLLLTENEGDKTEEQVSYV
# Chain of KOP (P41145 whole entry): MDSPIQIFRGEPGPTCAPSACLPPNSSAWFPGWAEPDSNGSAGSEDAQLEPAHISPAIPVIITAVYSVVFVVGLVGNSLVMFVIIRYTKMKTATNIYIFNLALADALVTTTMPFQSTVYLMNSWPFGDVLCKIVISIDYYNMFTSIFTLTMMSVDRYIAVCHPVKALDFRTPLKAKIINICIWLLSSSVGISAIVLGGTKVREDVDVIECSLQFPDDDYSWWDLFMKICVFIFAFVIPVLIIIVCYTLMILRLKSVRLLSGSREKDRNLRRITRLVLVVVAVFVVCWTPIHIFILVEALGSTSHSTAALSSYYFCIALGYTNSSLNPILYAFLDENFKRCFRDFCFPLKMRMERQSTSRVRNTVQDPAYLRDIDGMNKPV
# Chain of ADRA2B - AG (P18089 whole entry): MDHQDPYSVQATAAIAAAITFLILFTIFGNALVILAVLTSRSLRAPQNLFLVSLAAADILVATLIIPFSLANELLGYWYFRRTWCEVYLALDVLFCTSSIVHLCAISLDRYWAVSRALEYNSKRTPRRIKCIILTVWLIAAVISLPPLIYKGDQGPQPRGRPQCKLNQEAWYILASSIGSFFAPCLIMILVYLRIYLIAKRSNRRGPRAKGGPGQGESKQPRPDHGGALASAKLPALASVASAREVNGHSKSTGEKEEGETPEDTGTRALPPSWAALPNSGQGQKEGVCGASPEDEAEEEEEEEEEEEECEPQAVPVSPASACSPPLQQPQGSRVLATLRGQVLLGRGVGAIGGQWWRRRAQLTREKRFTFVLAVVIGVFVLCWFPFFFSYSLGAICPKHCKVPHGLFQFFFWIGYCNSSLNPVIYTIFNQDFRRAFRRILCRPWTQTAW
# Chain of ETA (P25101 21-427): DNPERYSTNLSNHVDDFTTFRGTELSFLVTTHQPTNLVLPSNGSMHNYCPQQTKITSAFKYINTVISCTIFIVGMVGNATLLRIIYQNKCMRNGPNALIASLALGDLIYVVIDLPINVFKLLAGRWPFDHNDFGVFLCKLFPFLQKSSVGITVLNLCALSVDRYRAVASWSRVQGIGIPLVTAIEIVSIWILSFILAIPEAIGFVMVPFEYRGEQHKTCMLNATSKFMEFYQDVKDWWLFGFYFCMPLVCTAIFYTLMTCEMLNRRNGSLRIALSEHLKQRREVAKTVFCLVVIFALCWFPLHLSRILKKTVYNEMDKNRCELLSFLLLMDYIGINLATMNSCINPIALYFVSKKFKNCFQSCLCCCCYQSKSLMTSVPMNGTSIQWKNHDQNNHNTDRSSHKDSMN
# T8 sequence (Q01959 whole entry): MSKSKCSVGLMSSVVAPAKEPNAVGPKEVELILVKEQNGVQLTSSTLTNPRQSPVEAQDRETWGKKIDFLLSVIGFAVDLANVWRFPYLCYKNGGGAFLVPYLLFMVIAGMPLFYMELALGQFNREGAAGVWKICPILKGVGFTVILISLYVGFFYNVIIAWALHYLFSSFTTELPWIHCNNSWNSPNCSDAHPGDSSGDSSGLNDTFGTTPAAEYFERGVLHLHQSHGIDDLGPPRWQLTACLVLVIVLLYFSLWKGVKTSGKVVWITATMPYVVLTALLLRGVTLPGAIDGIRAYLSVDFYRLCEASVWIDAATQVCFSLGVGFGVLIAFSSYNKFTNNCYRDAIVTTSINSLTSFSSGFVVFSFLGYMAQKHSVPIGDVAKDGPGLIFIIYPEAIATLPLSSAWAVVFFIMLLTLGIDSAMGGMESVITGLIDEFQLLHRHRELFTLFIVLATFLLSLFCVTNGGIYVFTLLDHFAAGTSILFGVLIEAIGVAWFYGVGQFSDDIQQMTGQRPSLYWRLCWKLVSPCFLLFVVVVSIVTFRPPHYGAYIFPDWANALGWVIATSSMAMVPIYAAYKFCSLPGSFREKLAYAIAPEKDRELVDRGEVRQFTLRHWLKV
# T11 sequence (O14920 whole entry): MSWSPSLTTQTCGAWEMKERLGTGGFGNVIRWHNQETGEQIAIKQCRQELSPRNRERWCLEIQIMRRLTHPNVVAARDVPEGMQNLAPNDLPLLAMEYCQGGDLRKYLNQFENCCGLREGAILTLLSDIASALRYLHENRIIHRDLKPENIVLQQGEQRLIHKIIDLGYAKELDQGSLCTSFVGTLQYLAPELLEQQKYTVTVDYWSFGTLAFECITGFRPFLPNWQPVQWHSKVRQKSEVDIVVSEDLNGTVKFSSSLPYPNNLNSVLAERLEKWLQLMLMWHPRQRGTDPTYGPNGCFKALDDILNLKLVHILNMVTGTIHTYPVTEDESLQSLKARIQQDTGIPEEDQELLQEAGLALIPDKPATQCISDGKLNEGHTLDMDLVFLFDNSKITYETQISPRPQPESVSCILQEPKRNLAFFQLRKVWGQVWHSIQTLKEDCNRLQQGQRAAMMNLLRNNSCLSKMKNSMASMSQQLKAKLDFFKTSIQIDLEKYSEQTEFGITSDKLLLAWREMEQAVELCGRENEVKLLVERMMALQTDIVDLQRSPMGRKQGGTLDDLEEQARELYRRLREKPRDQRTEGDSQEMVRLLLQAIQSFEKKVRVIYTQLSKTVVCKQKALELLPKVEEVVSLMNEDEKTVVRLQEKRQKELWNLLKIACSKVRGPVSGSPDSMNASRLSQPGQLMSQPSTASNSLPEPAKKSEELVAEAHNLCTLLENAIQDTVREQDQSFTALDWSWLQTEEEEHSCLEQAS
# Chain of ADRB1 (P08588 whole entry): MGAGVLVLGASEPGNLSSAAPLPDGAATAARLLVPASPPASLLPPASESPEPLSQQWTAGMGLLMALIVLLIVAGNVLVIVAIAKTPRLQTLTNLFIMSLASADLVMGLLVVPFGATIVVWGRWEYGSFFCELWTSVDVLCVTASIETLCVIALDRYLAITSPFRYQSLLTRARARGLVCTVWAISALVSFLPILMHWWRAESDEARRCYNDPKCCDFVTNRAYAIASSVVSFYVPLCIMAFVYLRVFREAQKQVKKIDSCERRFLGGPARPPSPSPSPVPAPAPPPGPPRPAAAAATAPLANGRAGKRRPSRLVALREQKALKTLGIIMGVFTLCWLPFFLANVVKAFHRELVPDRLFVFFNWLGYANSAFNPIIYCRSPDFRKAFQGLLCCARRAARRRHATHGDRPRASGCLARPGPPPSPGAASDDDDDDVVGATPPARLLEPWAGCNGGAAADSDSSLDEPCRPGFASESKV
# T3 sequence (P08588 whole entry): as above
# T9 sequence (Q00535 whole entry): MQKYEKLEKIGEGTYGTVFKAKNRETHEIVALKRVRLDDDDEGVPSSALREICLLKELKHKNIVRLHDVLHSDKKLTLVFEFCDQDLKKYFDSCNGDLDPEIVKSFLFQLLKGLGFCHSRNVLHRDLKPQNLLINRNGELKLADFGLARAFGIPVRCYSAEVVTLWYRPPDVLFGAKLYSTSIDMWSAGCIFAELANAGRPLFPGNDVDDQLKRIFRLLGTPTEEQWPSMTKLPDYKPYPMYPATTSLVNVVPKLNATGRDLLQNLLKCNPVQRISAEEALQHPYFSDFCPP
# T9 sequence (Q15078 whole entry partner): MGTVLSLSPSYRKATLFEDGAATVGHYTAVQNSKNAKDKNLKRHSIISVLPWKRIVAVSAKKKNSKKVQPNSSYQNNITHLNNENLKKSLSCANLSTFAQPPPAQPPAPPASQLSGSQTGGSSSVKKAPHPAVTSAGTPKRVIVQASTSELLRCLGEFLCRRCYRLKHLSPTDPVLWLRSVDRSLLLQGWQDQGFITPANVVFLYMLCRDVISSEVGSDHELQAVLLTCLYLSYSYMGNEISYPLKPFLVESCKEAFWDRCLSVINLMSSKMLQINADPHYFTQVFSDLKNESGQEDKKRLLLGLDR
# Chain of ADRA2C (P18825 whole entry, species assumed): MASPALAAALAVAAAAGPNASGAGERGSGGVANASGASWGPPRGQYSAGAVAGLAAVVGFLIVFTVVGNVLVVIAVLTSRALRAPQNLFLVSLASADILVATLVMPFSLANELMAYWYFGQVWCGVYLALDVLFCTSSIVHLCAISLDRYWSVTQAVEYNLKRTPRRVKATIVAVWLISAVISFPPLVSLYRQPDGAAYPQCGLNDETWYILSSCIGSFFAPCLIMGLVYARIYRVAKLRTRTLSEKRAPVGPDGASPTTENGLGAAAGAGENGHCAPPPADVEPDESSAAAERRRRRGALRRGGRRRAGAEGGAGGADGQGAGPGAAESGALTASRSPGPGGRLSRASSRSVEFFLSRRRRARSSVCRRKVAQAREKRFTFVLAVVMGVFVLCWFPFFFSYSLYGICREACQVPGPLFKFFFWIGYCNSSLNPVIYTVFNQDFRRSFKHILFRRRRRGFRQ
smiles,measurement,setting,value
CC1CCCN1C(=O)c1nc(C(=O)NCC(C)(C)O)sc1-c1ccc(C(O)(C(F)(F)F)C(F)(F)F)c(Cl)c1Cl (stereo not drawn) [JNJ-61803534],IC50,LXRβ,> 1.5 µM
same,IC50,FXR,> 1.5 µM
same,inhibition at 1 µM,beta 1 (h),< 10%
same,inhibition at 10 µM,beta 1 (h),< 10%
same,inhibition at 1 µM,B2 (h),< 10%
same,inhibition at 10 µM,B2 (h),< 10%
same,inhibition at 1 µM,CXCR2 (h) (IL-8B),< 10%
same,inhibition at 10 µM,CXCR2 (h) (IL-8B),< 10%
same,inhibition at 1 µM,M2 (h),< 10%
same,inhibition at 10 µM,M2 (h),< 10%
same,inhibition at 1 µM,5-HT1A (h),< 10%
same,inhibition at 10 µM,5-HT1A (h),< 10%
same,inhibition at 1 µM,DA-T transporter (h),< 10%
same,inhibition at 10 µM,DA-T transporter (h),< 10%
same,EC50,5HT1B; agonist,> 12.5 µM
same,IC50,5HT1B; antagonist,> 12.5 µM
same,EC50,5HT2B; agonist,> 10 µM
same,IC50,5HT2B; antagonist,> 10 µM
same,EC50,5HT6; agonist,> 12.5 µM
same,IC50,5HT6; antagonist,> 12.5 µM
same,EC50,ADRA2B - AG; agonist,> 12.5 µM
same,IC50,ADRA2B - AG; antagonist,> 12.5 µM
same,EC50,ADRA2C; agonist,> 12.5 µM
same,IC50,ADRA2C; antagonist,> 12.5 µM
same,EC50,ADRB1; agonist,> 12.5 µM
same,IC50,ADRB1; antagonist,> 12.5 µM
same,EC50,ETA; agonist,> 10 µM
same,IC50,ETA; antagonist,> 10 µM
same,EC50,KOP; agonist,> 12.5 µM
same,IC50,KOP; antagonist,> 12.5 µM
same,activity at 1 µM,CDK5/p35(h),97%
same,activity at 10 µM,CDK5/p35(h),107%
same,activity at 1 µM,GSK3β(h),111%
same,activity at 10 µM,GSK3β(h),105%
same,activity at 1 µM,IKKβ(h),75%
same,activity at 10 µM,IKKβ(h),138%
same,activity at 1 µM,MAPK2(h),124%
same,activity at 10 µM,MAPK2(h),127%
same,activity at 1 µM,PDGFRβ(h),103%
same,activity at 10 µM,PDGFRβ(h),143%
same,activity at 1 µM,TrkC(h),92%
same,activity at 10 µM,TrkC(h),88%
same,FOXP3 expression levels versus DMSO-treated cells,[1],similar
same,disease incidence at day 35,[2]; 3 mg/kg BID,100%
same,"reduction of clinical arthritis scores (AUC) vs vehicle, efficacy % inhibition",[2]; 3 mg/kg BID oral,30%
same,disease incidence at day 35,[2]; 10 mg/kg BID,89%
same,"reduction of clinical arthritis scores (AUC) vs vehicle, efficacy % inhibition",[2]; 10 mg/kg BID oral,44%
same,disease incidence at day 35,[2]; 30 mg/kg BID,80%
same,"reduction of clinical arthritis scores (AUC) vs vehicle, efficacy % inhibition",[2]; 30 mg/kg BID oral,66%
same,disease incidence at day 35,[2]; 60 mg/kg QD,100%
same,"reduction of clinical arthritis scores (AUC) vs vehicle, efficacy % inhibition","[2]; 60 mg/kg QD oral, p > 0.05",13%
same,disease incidence at day 35,[2]; 100 mg/kg BID,45%
same,"reduction of clinical arthritis scores (AUC) vs vehicle, efficacy % inhibition",[2]; 100 mg/kg BID oral,88%
same,inhibition of total histopathology score,"[2]; 100 mg/kg, BID, oral",94%
same,maximum inhibition for final arthritic score,"[2]; 100 mg/kg, BID, oral",88%
same,maximum inhibition of clinical score,"[2]; mouse, in vivo",~ 90%
same,genetic toxicity,[3],negative
same,genetic toxicity,rat bone marrow,negative
same,effect on fetal development,rabbit fetal development,fetal development was impacted
same,inhibition of IFNγ production,[4],no inhibition; also recorded: did not inhibit
